What was measured:
[1] = test system: AtT-20 cells; assay: Dose response of spontaneous calcium oscillations by confocal Calcium Green imaging of single cells; type: cell-based, mouse
Experimental: Sigmoidal dose response curves were fit to each individual cell and the average response over the total population was calculated.
The treated cell samples were imaged using asymmetric imaging methods and a temporal resolution of 3 fps for up to 45 minutes total recording time. In particular, illumination (excitation) was diffraction limited while the detection (emission) was almost wide-field by opening the confocal detection pinhole but leaving the excitation pinhole closed. This allowed for increased detection efficiency, while still suppressing background fluorescence. […]
The Attofluor cell culture chamber was placed inside a PenCon temperature controlled incubator at 37° C. mounted on a DMIRB/E inverted microscope (obtained from Leica Microsystems; Wetzlar, Germany). […] The digital temperature readout of the incubator was checked with a calibrated mercury thermometer to confirm the values within 0.2° C. […]

[2] = test system: AtT-20 cells; assay: Cell viability control after 45 minutes of imaging and nimodipine: calcium response to high K+ depolarization; type: cell-based, mouse; settings: 45 minutes of imaging and nimodipine treatment up to maximum dose, FIG. 4B
Experimental: Cells were stained with Calcium Green, imaged and exposed to increasing drug doses for 45 minutes. […] First, untreated AtT-20 cells were imaged over a forty-five (45) minute time span with continuous recording at 3 fps. The amplitude of calcium oscillations was measured and plotted over time. […] The averaged oscillation amplitudes of an untreated cell sample over a fifty (50) minute interval for all cells is shown in FIG. 3B. […] As such, experiments were not recorded longer than 45 minutes.

COCCOC(=O)C1=C(C)NC(C)=C(C(=O)OC(C)C)C1c1cccc([N+](=O)[O-])c1 (stereo not drawn) [nimodipine, 1,4-Dihydro-2,6-dimethyl-4-(3-nitrophenyl)-3,5-pyridinedicarboxylic acid 2-methyloxyethyl 1-methylethyl ester]
IC50 ([1]; Mus musculus, AtT20, 5 min, average over all individual cells, FIG. 5B, 5 minute interval per dose, read-out: IC50 of the averaged dose response of calcium oscillation amplitude): 23 nM | Concentration giving complete inhibition of baseline spontaneous calcium oscillations (BSCOs) ([1]; representative cell, FIG. 4C, concentration increased in 10-fold increments): 100 nM | Toxicity of prolonged exposure to cells [2]: non-toxic
